Laboratory results from patent US20260327255A1, “LIGAND-DIRECTED COVALENT MODIFICATION OF AMINO ACID SIDE CHAINS USING CYCLIC IMINE MANNICH ELECTROPHILES” (Purdue Research Foundation, priority 2022, published 2026).
Changes are numbered by the printed parent chain. pIC50, pKd: −log10 of the molar value. Where a SMILES comes first, the peptide text is derived from it. [ ]: non-standard residue; d: D form. The star is where a group is joined. Benzoyl(4-OPh) = O=C(c1ccc(Oc2ccccc2)cc1)*; Lys(Et2) = CCN(CC)CCCC[C@H](N)C(=O)O; Gly(cPent) = N[C@H](C(=O)O)C1CCCC1

What was measured:
[1] = Stability of cyclic imine inhibitor P1b; format: physicochemical
Protocol: The sample was split, and one portion was further reduced with sodium cyanoborohydride. LC/MS: UV traces, low resolution mass spectrum. […] Stability was similarly assayed with 24-hour incubation in either 100 mM HCl or 100 mM NaOH.

[2] = biological target: T1, wild-type CBX8 chromodomain (Homo sapiens, UniProt Q9HC52); assay: Time-dependent fluorescence polarization displacement assay, CBX8; format: binding; conditions: for time-dependent change of potency (IC50): further incubation; for IC50 without additional incubation time (in words): no additional incubation
T1 construct: recombinant CBX8 chromodomain (ChD)
T1 sequence (Q9HC52 11-69 limits assumed): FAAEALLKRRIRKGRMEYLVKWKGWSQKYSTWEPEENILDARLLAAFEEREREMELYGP
Protocol: (A) The fraction of labeled protein as determined by UV integration on reverse phase HPLC. CBX8 ChD and P2 were incubated at 10 μM each for 16 hours at 37° C. UV absorption measured at 215 nm. (B) Mass spectra of CBX8 ChD treated overnight with inhibitor P2 (top, red) and control CBX8 ChD (bottom, green). […] (C) Time dependent fluorescence polarization displacement assays of indicated chromodomains with P2. Assays were conducted using SW2_123 as an FP probe (FIG. S15) at 100 nM. All proteins were used at 2 μM in PBS (pH 7), 0.02% Tween 20. Error bars represent s.d.
A fluorescence polarization (FP) displacement assay was used to evaluate the covalent binding of cyclic imine warhead containing inhibitors.
To validate labeling of the targeted tyrosine residue (Y39), this amino acid was mutated to phenylalanine, which is structurally similar but lacks reactivity to the cyclic imine.

mutant CBX8 (Y39F) = biological target: T2, mutant CBX8 (Y39F) (Homo sapiens, UniProt Q9HC52, Y39F); assay: Time-dependent fluorescence polarization displacement assay, CBX8 Y39F; format: binding
T2 construct: Time dependent fluorescence polarization displacement assays of indicated chromodomains with P2
T2 sequence (Q9HC52 11-69 Y39F limits assumed): T1 sequence (Q9HC52 11-69 limits assumed) with Y29F
Protocol: (A) The fraction of labeled protein as determined by UV integration on reverse phase HPLC. CBX8 ChD and P2 were incubated at 10 μM each for 16 hours at 37° C. UV absorption measured at 215 nm. (B) Mass spectra of CBX8 ChD treated overnight with inhibitor P2 (top, red) and control CBX8 ChD (bottom, green). Observed masses are shown (expected average mass for CBX8 ChD=8792 Da). The observed mass difference (895 Da) corresponds to the expected mass change of 901 Da. (C) Time dependent fluorescence polarization displacement assays of indicated chromodomains with P2. Assays were conducted using SW2_123 as an FP probe (FIG. S15) at 100 nM. All proteins were used at 2 μM in PBS (pH 7), 0.02% Tween 20. Error bars represent s.d.
To validate labeling of the targeted tyrosine residue (Y39), this amino acid was mutated to phenylalanine, which is structurally similar but lacks reactivity to the cyclic imine. […] Similarly, for CBX2 ChD, no change in apparent affinity was observed over time in the FP assay (FIG. 13C), and no labeled protein was detected by MS.

[3] = system: HOXA9 gene expression in THP1 cells; assay: qRT-PCR analysis of HOXA9 gene expression in THP1 cells; format: cell-based
Protocol: FIG. 14 Cellular activity of covalent, cyclic imine inhibitors to CBX8. qRT-PCR analysis of HOXA9 gene expression in THP1 cells after 48 h of compound treatment at the indicated dose. N=3. Error bars represent s.d. Statistical significance determined by Student's T test. *=p<0.05, **=p<0.01, ***=p<0.001, ****=p<0.0001.
FIG. 15 Cellular activity of covalent, cyclic imine inhibitors to CBX8. (A) qRT-PCR analysis of HOXA9 gene expression in THP1 cells after 48 h of compound treatment at the indicated dose. N=3. Error bars represent s.d. Statistical significance calculated using student's t-test. **=p<0.01, ****=p<0.0001. (B) qRT-PCR analysis of HOXA9 gene expression in THP1 cells treated with increasing doses of compound for 48 h. N=3. Error bars represent s.d.
Imine inhibitors were assessed for improved cellular activity using a disease-relevant cell model. […] Using this same model, we compared the covalent inhibitors with non-covalent inhibitor SW2_110A in THP1 cell lines. […] The two optimal inhibitors P1bP and P2 were subsequently tested for dose-dependency in this cellular assay. Dose curves indicate that these covalent inhibitors have 30 to 100-fold improvement of cellular activity compared to the non-covalent inhibitor (FIG. 15B).

endogenous CBX8 = biological target: T3, endogenous CBX8 (Homo sapiens, UniProt Q9HC52); assay: In-gel fluorescence labeling in HEK293T cell lysates; format: binding; conditions: ~20 μM, 20 eq competitor with P2
T3 sequence (Q9HC52 1-389): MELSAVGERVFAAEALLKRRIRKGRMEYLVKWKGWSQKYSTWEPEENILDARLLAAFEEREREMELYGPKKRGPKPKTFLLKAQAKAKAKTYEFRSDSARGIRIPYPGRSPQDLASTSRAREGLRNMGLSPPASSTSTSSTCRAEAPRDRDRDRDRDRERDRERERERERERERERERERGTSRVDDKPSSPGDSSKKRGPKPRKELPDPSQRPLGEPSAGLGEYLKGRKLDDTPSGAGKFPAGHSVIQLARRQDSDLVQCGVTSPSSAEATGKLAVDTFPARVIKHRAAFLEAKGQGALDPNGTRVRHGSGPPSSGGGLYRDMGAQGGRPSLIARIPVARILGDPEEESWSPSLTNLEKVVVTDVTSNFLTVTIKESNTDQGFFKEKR
Protocol: After incubation of the inhibitor P2 at 1 μM in HEK293T cell lysates for 1 h at 37° C., click chemistry was conducted to conjugate TAMRA-azide to the C-terminal alkyne of P2 prior to SDS-PAGE.

CBX8 ChD = biological target: T4, CBX8 ChD (Homo sapiens, UniProt Q9HC52); conditions: cited from earlier work
T4 construct: recombinant CBX8 chromodomain (ChD)
T4 sequence (Q9HC52 11-69 limits assumed): T1 sequence (Q9HC52 11-69 limits assumed)

[4] = system: CBX8 binding to chromatin; CBX8-mediated gene expression; conditions: MLL-AF9 transformed leukemia; cited from earlier work

Row | Compound | degradation ([1]; 100 mM HCl, 100 mM NaOH and neutral PBS, 96 h, room temperature) | conversion of imine to amine on NaBH3CN after 24-hour incubation in PBS ([1]; 24 h PBS, then sodium cyanoborohydride (10 eq.)) | time-dependent change of potency (IC50) [2] | IC50 without additional incubation time (in words) [2] | pIC50 (mutant CBX8 (Y39F)) | reduction of HOXA9 gene expression, 10 μM P1b vs 100 μM SW2_110A ([3]; 10 μM P1b vs 100 μM SW2_110A) | reduction of HOXA9 expression versus non-covalent inhibitor ([3]; THP1, 48 h, vs SW2_110A) | effect on P2 protein labeling on co-incubation (endogenous CBX8) | selectivity over CBX2 (CBX8 ChD; CBX8 over CBX2) | pKd (CBX8 ChD) | selectivity for CBX8 over CBX4, CBX6, and CBX7 (CBX8 ChD; in words) | CBX8-mediated gene expression [4] | inhibition of CBX8 binding to chromatin [4]
1 | CC[C@H](C)[C@H](NC(=O)[C@@H](NC(=O)c1ccc(Oc2ccccc2)cc1)C1CCCC1)C(=O)N[C@@H](CCCCN(CC)CCCCCCN1CCN=CC1=O)C(=O)N[C@@H](CO)C(N)=O [Compound P1b] | no significant degradation | full conversion of imine to amine | time-dependent increase of potency | comparable IC50 values | 5.14 | reduced gene expression to a similar extent as 100 μM SW2_110A | most effective at reducing HOXA9 gene expression | – | – | – | – | – | –
2 | CC[C@H](C)[C@H](NC(=O)[C@@H](NC(=O)c1ccc(Oc2ccccc2)cc1)C1CCCC1)C(=O)N[C@@H](CCCCN(CC)CC)C(=O)N[C@@H](CO)C(N)=O [SW2_110A] ({Benzoyl(4-OPh)}-[Gly(cPent)]I[Lys(Et2)]S-NH2) | – | – | did not | comparable IC50 values | – | – | – | protein labeling was reduced | 6 fold | 6.10 | high selectivity | reduces CBX8-mediated gene expression | inhibits CBX8 binding to chromatin
